We go through 15 molecules from patent US20020065326A1, “Patient oxygenation using stabilized fluorocarbon emulsions” (priority 1992, published 2002).

The nature of one data set: in vivo. The source says:
Traditionally, the molecular weight region from 460-550 g/mol has been considered optimal for blood substitute applications. The lower cutoff is related to the formation of gas emboli for fluorocarbons with vapor pressures greater than 20 torr. The upper cutoff is limited to compounds with organ retention times of less than 3 weeks.
The lower limit is defined by fluorocarbons with vapor pressures greater than 20 torr which causes gas emboli, while the upper limit is defined by fluorocarbons with organ retention times of less than 3 weeks.

For data set [1] the following is noted: cited from earlier work; for t½: organ retention half life, prior art / nonlipophilic fluorocarbons from literature.
Data set [2] is described as follows: Critical solution temperature (CST) versus hexane. In kind it is physicochemical. How it is done:
Critical solution temperature for fluorocarbon liquids was measured in the following manner: Equivolume mixtures of the test fluorocarbon and hydrocarbon (e.g., hexane) are placed in a sealed vial and submerged in a temperature controlled water bath. Samples are cooled until two distinct phases are present. At this point, the temperature is increased slowly. The lowest temperature at which the two phases are completely miscible (i.e., a single liquid phase) is defined as the CST.
For comparison purposes, all CST temperatures used in this patent are reported versus hexane. It is often not possible, however, to measure the CST for lipophilic fluorocarbons versus hexane, since the CSTs for these substances are very low. Thus, the CST for lipophilic substances is often measured in longer chain length hydrocarbons, and the value versus hexane is determined via extrapolation of linear plots of CST vs. alkane chain length.

For data set [3] the following is noted: critical solution temperature vs hexane; prior art minor components discussed in literature; cited from earlier work.
Where [4] appears, read: vs hexane, estimated from extrapolations of linear plots of CST vs. hydrocarbon chain length.

Read-outs that look alike come from different tables or passages of the source. Marks after values point to notes of the source that are not given here.

By half-life is commonly meant the time in which the quantity being followed falls by half. `FC(F)(F)C(F)(F)C(F)(F)C(F)(F)C(F)(F)C(F)(F)C(F)(F)C(F)(F)Br` [F-octyl bromide, perfluorooctyl bromide]: the “organ retention time compared with that predicted from the molecular weight” value in the data set “in vivo” was “less than be predicted from the molecular weight”. In addition, the half-life in the data set “in vivo” (t½) was 4 days. For the same molecule, the “ratio of half-lives for PFOB/FDC” value in data set [1] (used to scale FIG. 6 values) was 4/7. Also, the CSTH entry in data set [2] (setting [4]) is recorded as “(−19)^a C”.

As usually defined, the t½ is the time needed for the level to fall by half in the phase considered. Regarding F—N-methylcyclohexylpiperidine, in data set [3], the CSTH is listed as 40 C. Also, the t½ in data set [1] was 60 days.

Consider `FC1(F)OC(F)(F)C(F)(F)N(C2(F)C(F)(F)C(F)(F)C(F)(F)C(F)(F)C2(F)F)C1(F)F` [F—N-cyclohexylmorpholine], for which the CSTH in data set [3] was 31 C. Also, the t½ in data set [1] is 13 days.

Regarding F-dipiperidinomethane, the CSTH in data set [3] is 42 C. In addition, in data set [1], the t½ is 55 days.

On to F-dipipendine, for which the CSTH in data set [3] is 36 C.

In the case of F-dip;peridinopropane, the CSTH in data set [3] is on record as 56 C. Moreover, the t½ in data set [1] is reported as 282 days.

As to `FC1(F)C(F)(F)C(F)(F)C2(F)C(F)(F)C(F)(F)C(F)(F)C(F)(F)C2(F)C1(F)F` (stereo not drawn) [F-decalin, perfluorodecalin], the half-life in “in vivo” (t½) was 7 days. This molecule also registered a CSTH in data set [2] (critical solution temperature vs hexane, Present Study) of 22 C.

As to `FC1(F)OC(F)(F)C(F)(F)N(C(F)(F)C(F)(F)C(F)(F)N2C(F)(F)C(F)(F)OC(F)(F)C2(F)F)C1(F)F` [F-dimorpholinopropane], the CSTH in data set [3] is 45 C. Also, the t½ in data set [1] was 50 days.

As to `FC(F)(F)C(F)(F)C(F)(F)C(F)(F)C(F)(F)C(F)(F)C(F)(F)C(F)(F)C(F)(F)C(F)(F)Br` [F-decyl bromide, perfluorodecyl bromide], in the data set “in vivo”, the “organ half-life versus prescribed cutoff” value is “less than 3 week”, the “organ retention time compared with that predicted from the molecular weight” value is on record as “less than be predicted from the molecular weight” and the “t½ (calculated half life in vivo in organs of the RES)” value was “(18) days”. Further, the half-life in “in vivo” (t½ (calculated half life in vivo in organs of the RES)) was about 18 days. For the same molecule, in data set [2] (vs hexane, at comparable molecular weight), the “critical solution temperature compared with prior art stabilizers (in words)” value was “dramatically lower”. Moreover, the CSTH entry in data set [2] (setting [4]) is listed as “(19)^a C”.

On to F-dipiperidinoethane, for which the CSTH in data set [3] is listed as 49 C. The t½ in data set [1] is 124 days.

For `FC1(F)OC(F)(F)C(F)(F)N(C(F)(F)C(F)(F)N2C(F)(F)C(F)(F)OC(F)(F)C2(F)F)C1(F)F` [F-dimorpholinoethane], the CSTH in data set [3] is given as 38 C. For the same molecule, the t½ in data set [1] was 24 days.

As for F-dipiperidinobutane, the CSTH in data set [3] is 72 C. Also, the t½ in data set [1] was 1460 days.

As to `FC1(F)C(F)(F)C(F)(F)C2(F)C(F)(C1(F)F)C(F)(F)C(F)(F)C1(F)C(F)(F)C(F)(F)C(F)(F)C(F)(F)C12F` (stereo not drawn) [F-perhydrophenanthrene], in data set [3], the CSTH is recorded as 48 C.

Molecule `FC(F)(F)C(F)(F)C(F)(F)C(F)(F)C(F)(F)C(F)(F)Br` [F-hexyl bromide, 1-bromotridecafluorohexane] showed a half-life in “in vivo” (in vivo) of 2 days.

Take `FC1(F)OC(F)(F)C(F)(F)N(C(F)(F)C(F)(F)C(F)(F)C(F)(F)C(F)(F)N2C(F)(F)C(F)(F)OC(F)(F)C2(F)F)C1(F)F` [F-dimorpholinopentane]: the CSTH in data set [3] was 60 C. Also, in data set [1], the t½ is given as 280 days.
